{
  "source": "patent US9492447B2",
  "about": "“Cannabinoid receptor modulators” (Arena Pharmaceuticals, Inc., priority 2011, dated 2016)",
  "key": {"[1]": {"tested_on": "rats following ligation of spinal nerves", "conditions": "cited from earlier work"}, "[2]": {"tested_on": "acute and chronic pain from chemical, mechanical, and thermal pain stimuli", "conditions": "animal studies; cited from earlier work"}, "[3]": {"assay": "Dynamic moisture-sorption (DMS) analysis", "type": "physicochemical", "experimental": "A dynamic moisture-sorption (DMS) study was conducted using a dynamic moisture-sorption analyzer, VTI Corporation, SGA-100. The instrument was calibrated using polyvinyl pyrrolidone (PVP) and NaCl. Samples were prepared for DMS analysis by placing 5 mg to 20 mg of a sample in a tared sample holder. The sample was placed on the hang-down wire of the VTI balance. A drying step was run, typically at 40° C. and 0.5-1% RH for 1 h. The isotherm temperature is 25° C. Defined % RH holds typically ranged from 10% RH to 90% RH, with intervals of 10 to 20% RH. A % weight change smaller than 0.010% over 10 min, or up to 2 h, whichever occurred first, was required before continuing to the next % RH hold. The water content of the sample equilibrated as described above was determined at each % RH hold."}, "[4]": {"biological_target": "T1, human CB2 receptor (Homo sapiens, UniProt P34972)", "T1 construct": "CB2 was cloned into the pCMV-PK vector; 93-0164 (CHO-K1 EA-Arrestin parental cell line)", "T1 sequence (P34972 whole entry)": "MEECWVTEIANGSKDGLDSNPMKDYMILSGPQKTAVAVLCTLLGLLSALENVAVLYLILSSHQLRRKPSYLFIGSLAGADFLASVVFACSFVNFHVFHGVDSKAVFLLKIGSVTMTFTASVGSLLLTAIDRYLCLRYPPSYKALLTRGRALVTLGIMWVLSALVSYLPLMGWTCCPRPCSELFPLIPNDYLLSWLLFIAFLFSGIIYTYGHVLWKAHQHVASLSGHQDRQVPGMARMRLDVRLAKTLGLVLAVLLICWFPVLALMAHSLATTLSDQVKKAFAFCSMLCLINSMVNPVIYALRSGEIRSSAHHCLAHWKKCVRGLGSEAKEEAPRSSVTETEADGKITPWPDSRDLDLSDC", "assay": "PathHunter β-arrestin assay, CB2 assay", "type": "cell-based"}, "[5]": {"tested_on": "STZ-induced PDPN model, diabetic and allodynic rats", "assay": "Streptozotocin-induced painful diabetic peripheral neuropathy (PDPN) model", "type": "in vivo, rat", "conditions": "10 mg/kg orally in 0.5% methylcellulose; 1, 4 and 6 hours post-dosing; FIG. 13, 14", "experimental": "Male Sprague-Dawley rats were injected intraperitoneally with 50 mg/kg of streptozotocin (STZ) in sodium citrate buffer. 10% sucrose water was provided ad libitum for the first 48 hours post-STZ followed by regular drinking water. Rats were monitored once weekly for blood glucose levels and body weights. Development of tactile allodynia over time was analyzed using Von Frey filaments and a 50% withdrawal threshold was determined using Dixon's up-down procedure. […] Tactile allodynia was evaluated at 1, 4 and 6 hours post-dosing."}, "[6]": {"tested_on": "Monosodium iodoacetate-induced osteoarthritis rats", "assay": "Combination of Compound 699 and morphine in MIA-induced osteoarthritis pain, Von Frey test", "type": "in vivo, rat", "conditions": "1 mpk morphine intraperitoneally; Von Frey one hour post-dosing"}},
  "note": "Several values for one entry are separate records, joined by “and”; a condition that tells them apart may be missing. Identical values can stand only once.",
  "data": [
    {"compound": "COc1ccc(C(=O)c2c(C)n(CCN3CCOCC3)c3cc(I)ccc23)cc1", "note": "[AM630]", "values": [
      {"measurement": "effect on the reversal of hypersensitivity by AM1241", "setting": "[1]; treatment with CB2-selective antagonist", "result": "inhibited"}
    ]},
    {"compound": "CCCCCCC(C)(C)c1ccc([C@@H]2C[C@H](O)CC[C@H]2CCCO)c(O)c1", "note": "[CP55,940]", "values": [
      {"measurement": "effect against acute and chronic pain", "setting": "[2]", "result": "effective against acute and chronic pain"}
    ]},
    {"compound": "CC(C)(C)[C@@H](CO)NC(=O)c1nn(-c2c[n+]([O-])ccn2)c2c1C[C@@H]1C[C@H]21", "note": "[Compound 699 (Anhydrous Form), (1aS,5aS)-2-(4-Oxy-pyrazin-2-yl)-1a,2,5,5a-tetrahydro-1H-2,3-diaza-cyclopropa[a]pentalene-4-carboxylic Acid ((S)-1-Hydroxymethyl-2,2-dimethyl-propyl)-amide]", "values": [
      {"measurement": "Weight (% Change)", "setting": "[3]; adsorption, sample RH 29.94 %, 25.32", "result": 0.151, "unit": "%"},
      {"measurement": "Weight (% Change)", "setting": "[3]; adsorption, sample RH 49.86 %, 25.31", "result": 0.282, "unit": "%"},
      {"measurement": "Weight (% Change)", "setting": "[3]; adsorption, sample RH 69.77 %, 25.3", "result": 0.482, "unit": "%"},
      {"measurement": "Weight (% Change)", "setting": "[3]; adsorption, sample RH 79.70 %, 25.29", "result": 0.581, "unit": "%"},
      {"measurement": "Weight (% Change)", "setting": "[3]; adsorption, sample RH 89.72 %, 25.3", "result": 0.762, "unit": "%"},
      {"measurement": "Weight (% Change)", "setting": "[3]; desorption, sample RH 10.06 %, 25.29", "result": 0.080, "unit": "%"},
      {"measurement": "Weight (% Change)", "setting": "[3]; desorption, sample RH 29.99 %, 25.29", "result": 0.181, "unit": "%"},
      {"measurement": "Weight (% Change)", "setting": "[3]; desorption, sample RH 50.07 %, 25.3", "result": 0.364, "unit": "%"},
      {"measurement": "Weight (% Change)", "setting": "[3]; desorption, sample RH 70.11 %, 25.30", "result": 0.526, "unit": "%"},
      {"measurement": "Weight (% Change)", "setting": "[3]; sample RH […], 25.46, elapsed 46.6 min (after drying)", "result": 0, "unit": "%"}
    ]},
    {"compound": "O=C(NC1(C(F)(F)F)CCC1)c1nn(-c2c[n+]([O-])ccn2)c2c1C[C@@H]1C[C@H]21", "note": "[Compound 765, (1aS,5aS)-2-(4-Oxy-pyrazin-2-yl)-1a,2,5,5a-tetrahydro-1H-2,3-diaza-cyclopropa[a]pentalene-4-carboxylic Acid (1-Trifluoromethyl-cyclobutyl)-amide]", "values": [
      {"measurement": "EC50", "setting": "[4]", "result": 1.1, "unit": "nM"}
    ]},
    {"compound": "CC(C)(NC(=O)c1nn(-c2c[n+]([O-])ccn2)c2c1C[C@@H]1C[C@H]21)C(F)(F)F", "note": "[Compound 919, (1aS,5aS)-2-(4-Oxy-pyrazin-2-yl)-1a,2,5,5a-tetrahydro-1H-2,3-diaza-cyclopropa[a]pentalene-4-carboxylic Acid (2,2,2-Trifluoro-1,1-dimethyl-ethyl)-amide]", "values": [
      {"measurement": "EC50", "setting": "[4]", "result": 2.8, "unit": "nM"},
      {"measurement": "analgesic efficacy, tactile allodynia (50% withdrawal threshold)", "setting": "[5]", "result": "robust and sustained analgesic efficacy over 6 hours"}
    ]},
    {"compound": "O=C(N[C@H]1c2ccccc2C[C@H]1O)c1nn(-c2c[n+]([O-])ccn2)c2c1C[C@@H]1C[C@H]21", "note": "[Compound 921, (1aS,5aS)-2-(4-Oxy-pyrazin-2-yl)-1a,2,5,5a-tetrahydro-1H-2,3-diaza-cyclopropa[a]pentalene-4-carboxylic Acid ((1S,2R)-2-Hydroxy-indan-1-yl)-amide]", "values": [
      {"measurement": "EC50", "setting": "[4]", "result": 2.2, "unit": "nM"}
    ]},
    {"compound": "O=C(NC1(C(F)(F)F)CCC1)c1nn(-c2cnccn2)c2c1C[C@@H]1C[C@H]21", "note": "[Compound 926, (1aS,5aS)-2-Pyrazin-2-yl-1a,2,5,5a-tetrahydro-1H-2,3-diaza-cyclopropa[a]pentalene-4-carboxylic Acid (1-Trifluoromethyl-cyclobutyl)-amide]", "values": [
      {"measurement": "EC50", "setting": "[4]", "result": 4.1, "unit": "nM"}
    ]},
    {"compound": "COc1ccc2c(c1)c(CCN1CCOCC1)c(C)n2C(=O)c1cccc(Cl)c1Cl", "note": "[GW405833]", "values": [
      {"measurement": "effect on hypersensitivity to mechanical stimuli", "setting": "[1]; administered systemically", "result": "significantly reverses hypersensitivity to mechanical stimuli"}
    ]},
    {"compound": "CCCCCc1cc(O)c2c(c1)OC(C)(C)[C@@H]1CCC(C)=C[C@@H]21", "note": "[THC]", "values": [
      {"measurement": "effect against acute and chronic pain", "setting": "[2]", "result": "effective against acute and chronic pain"}
    ]},
    {"compound": "Cc1c(C(=O)c2cccc3ccccc23)c2cccc3c2n1[C@H](CN1CCOCC1)CO3", "note": "[WIN 55212-2]", "values": [
      {"measurement": "effect against acute and chronic pain", "setting": "[2]", "result": "effective against acute and chronic pain"}
    ]},
    {"compound": "CCCCC/C=C\\C/C=C\\C/C=C\\C/C=C\\CCCC(=O)NCCO", "note": "[anandamide]", "values": [
      {"measurement": "effect against acute and chronic pain", "setting": "[2]", "result": "effective against acute and chronic pain"}
    ]},
    {"compound": "CN1CC[C@]23c4c5ccc(O)c4O[C@H]2[C@@H](O)C=C[C@H]3[C@H]1C5", "note": "[morphine, reference compound]", "values": [
      {"measurement": "paw withdrawal threshold (PWT), individual values", "setting": "[6]", "result": "4.25 and 8.44 and 5.57 and 5.44 and 4.72 and 2.02"}
    ]}
  ]
}
